From patent US20260201008A1, “SECRETIN-DERIVED GLP1R SELECTIVE AGONISTS” (GUBRA A/S, priority 2023, published 2026)
Read-outs that look alike come from different tables or passages of the source. Numbered stars: 1 amine (or outer) side, 2 acyl side, 3 side chain; on linkers, the order of the positions; unused ones are H or OH. Square brackets hold non-standard residues; d marks the D form. Side chains are listed from the residue outwards. Peptide text beside a SMILES is read from it. * marks the point of attachment. C20 diacid = O=C(O)CCCCCCCCCCCCCCCCCCC(=O)*; γGlu = O=C(O)[C@H](CCC(=O)[*:2])N[*:1]; AEEA = NCCOCCOCC(=O)O; Aib = CC(C)(N)C(=O)O

Tests used:
[1] = biological target: GLP1R (Homo sapiens, UniProt P43220); assay: hGLP1R potency, cAMP accumulation in CHO-K1 cells stably overexpressing hGLP1R; type: cell-based; parameters: host or cells: CHO-K1; settings: for Selectivity: SCTR EC50/GLP1R EC50 ratio; for EC50: cAMP accumulation, CHO-K1 cells overexpressing hGLP1R; for SCTR EC50/GLP1R EC50 ratio: selectivity for hGLP1R over hSCTR, cAMP accumulation in CHO-K1 cells
Outline: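 2000 cells/well, DPBS + 0.05% casein + 0.5 mM IBMX; 30 min RT stimulation; HTRF cAMP detection after 1 h. Purified: 3-fold ×11, n=2; crude: 10-fold ×5, n=1. EC50 by variable-slope fit.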

[2] = Fibril formation of crude library peptides (Thioflavin T); type: physicochemical; parameters: key: average ThT fluorescence emission at 480 nm (ex 450 nm), raw units; settings: Physical stability of peptides
Outline: (§1)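 Turbidity is the absorbance at 600 nm, taken before heating. Fibril signal is the mean ThT emission at 480 nm (450 nm excitation), read every 10 min over 72 h at 40° C with 700 rpm shaking between reads. Peptides at 267 μM, pH 4.0 acetate or pH 7.0 phosphate buffer (50 mM), 4 μM ThT final.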

[3] = biological target: SCTR (Homo sapiens, UniProt P47872); assay: hSCTR potency, cAMP accumulation in CHO-K1 cells stably overexpressing hSCTR; type: cell-based; parameters: alternatively Euroscreen ES-712-AF; FAST-0161L; host or cells: CHO-K1; settings: cAMP accumulation, CHO-K1 cells overexpressing hSCTR
Outline: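 Thawed CHO-K1 cells carrying stable hSCTR are plated into casein/IBMX buffer (0.05%, 0.5 mM), dosed immediately for 30 min at room temperature, then cAMP is detected by TR-FRET. Purified peptides run as 11 three-fold dilutions in duplicate, and curves are fitted with variable slope.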

[4] = Turbidity of crude library peptides (absorbance at 600 nm); type: physicochemical; settings: Physical stability of peptides
Outline: as §1

[5] = read-out: pEC50 hGLPR1 (converted)
[6] = read-out: pEC50 hSCTR (converted)
[7] = read-out: hGLP1R pEC50 (converted)
[8] = read-out: hSCTR pEC50 (converted)

SCTR, sequence (P47872 23-440): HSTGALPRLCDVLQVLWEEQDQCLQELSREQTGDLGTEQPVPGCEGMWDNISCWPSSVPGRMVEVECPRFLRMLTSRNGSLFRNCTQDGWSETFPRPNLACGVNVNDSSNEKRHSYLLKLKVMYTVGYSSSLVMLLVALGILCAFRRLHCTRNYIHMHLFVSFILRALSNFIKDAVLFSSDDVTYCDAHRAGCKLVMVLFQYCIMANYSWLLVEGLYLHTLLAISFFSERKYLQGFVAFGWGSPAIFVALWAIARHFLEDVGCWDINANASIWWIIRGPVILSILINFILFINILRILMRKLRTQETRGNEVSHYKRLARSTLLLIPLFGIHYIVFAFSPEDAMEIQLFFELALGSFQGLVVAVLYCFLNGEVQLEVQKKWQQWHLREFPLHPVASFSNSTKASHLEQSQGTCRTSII
GLP1R, sequence (P43220 24-463): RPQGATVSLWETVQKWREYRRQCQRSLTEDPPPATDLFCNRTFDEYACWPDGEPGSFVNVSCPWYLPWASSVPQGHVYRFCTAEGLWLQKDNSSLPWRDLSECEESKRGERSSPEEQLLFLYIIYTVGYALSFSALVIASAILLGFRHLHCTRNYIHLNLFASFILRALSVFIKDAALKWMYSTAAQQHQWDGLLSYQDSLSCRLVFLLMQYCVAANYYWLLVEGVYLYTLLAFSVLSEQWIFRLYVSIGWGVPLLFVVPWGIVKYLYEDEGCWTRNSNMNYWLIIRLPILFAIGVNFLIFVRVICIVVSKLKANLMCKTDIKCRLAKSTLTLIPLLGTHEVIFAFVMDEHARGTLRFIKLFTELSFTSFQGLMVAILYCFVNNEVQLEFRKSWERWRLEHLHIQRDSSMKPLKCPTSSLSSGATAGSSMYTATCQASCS

Row | Selectivity [1] | EC50 [1, 5] | Fibril formation [2] | EC50 [3, 6] | Turbidity (pH 7) [4] | EC50 [1, 7] | SCTR EC50/GLP1R EC50 ratio [1] | EC50 [3, 8] | SMILES
1 |  |  | 47022 |  | 0.08 | 0.0794 nM | 51215 | 3980 nM | CC(C)C[C@H](NC(=O)[C@H](Cc1ccccc1)NC(=O)[C@H](CCCNC(=N)N)NC(=O)[C@H](CCC(N)=O)NC(=O)[C@H](C)NC(=O)[C@H](C)NC(=O)[C@H](C)NC(=O)[C@H](Cc1ccccc1)NC(=O)[C@H](CCC(=O)O)NC(=O)[C@H](CCCCNC(=O)COCCOCCNC(=O)COCCOCCNC(=O)CC[C@H](NC(=O)CCCCCCCCCCCCCCCCCCC(=O)O)C(=O)O)NC(=O)[C@H](CC(C)C)NC(=O)[C@H](Cc1ccccc1)NC(=O)[C@H](CO)NC(=O)[C@@H](NC(=O)[C@H](CC(=O)O)NC(=O)[C@H](CO)NC(=O)[C@@H](NC(=O)[C@H](Cc1ccccc1)NC(=O)[C@@H](NC(=O)CNC(=O)[C@H](CCC(=O)O)NC(=O)C(C)(C)NC(=O)[C@@H](N)Cc1c[nH]cn1)[C@@H](C)O)[C@@H](C)O)C(C)C)C(=O)N[C@@H](CCC(=O)O)C(=O)N[C@@H](Cc1c[nH]cn1)C(=O)N[C@@H](CC(C)C)C(=O)N[C@H](C(N)=O)C(C)C [compound 84] (H-H[Aib]EGTFTSDVSFLK([AEEA-AEEA-γGlu-C20 diacid])EFAAAQRFLEHLV-NH2)
2 |  |  | 19223 |  | 0.09 | 0.126 nM | 12682 | 1580 nM | CC(C)C[C@H](NC(=O)[C@H](Cc1ccccc1)NC(=O)[C@H](CCCNC(=N)N)NC(=O)[C@H](CCC(N)=O)NC(=O)C(C)(C)NC(=O)[C@H](C)NC(=O)[C@H](C)NC(=O)[C@@H](NC(=O)[C@H](CCC(=O)O)NC(=O)[C@H](CCCCNC(=O)COCCOCCNC(=O)COCCOCCNC(=O)CC[C@H](NC(=O)CCCCCCCCCCCCCCCCCCC(=O)O)C(=O)O)NC(=O)[C@H](CC(C)C)NC(=O)[C@H](CCCNC(=N)N)NC(=O)[C@H](CO)NC(=O)[C@@H](NC(=O)[C@H](CC(=O)O)NC(=O)[C@H](CO)NC(=O)[C@@H](NC(=O)[C@H](Cc1ccccc1)NC(=O)[C@@H](NC(=O)CNC(=O)[C@H](CCC(=O)O)NC(=O)C(C)(C)NC(=O)[C@@H](N)Cc1c[nH]cn1)[C@@H](C)O)[C@@H](C)O)C(C)C)[C@@H](C)O)C(=O)N[C@@H](CCC(=O)O)C(=O)N[C@@H](Cc1c[nH]cn1)C(=O)N[C@@H](CC(C)C)C(=O)N[C@H](C(N)=O)C(C)C [compound 85] (H-H[Aib]EGTFTSDVSRLK([AEEA-AEEA-γGlu-C20 diacid])ETAA[Aib]QRFLEHLV-NH2)
3 |  |  | 9344 |  | 0.08 | 0.2 nM | 19815 | 3980 nM | CC(C)C[C@H](NC(=O)[C@H](CCC(=O)O)NC(=O)[C@H](CCCCNC(=O)COCCOCCNC(=O)COCCOCCNC(=O)CC[C@H](NC(=O)CCCCCCCCCCCCCCCCCCC(=O)O)C(=O)O)NC(=O)[C@H](CC(C)C)NC(=O)[C@H](Cc1ccc(O)cc1)NC(=O)[C@H](CO)NC(=O)[C@@H](NC(=O)[C@H](CC(=O)O)NC(=O)[C@H](CO)NC(=O)[C@@H](NC(=O)[C@H](Cc1ccccc1)NC(=O)[C@@H](NC(=O)CNC(=O)[C@H](CCC(=O)O)NC(=O)C(C)(C)NC(=O)[C@@H](N)Cc1c[nH]cn1)[C@@H](C)O)[C@@H](C)O)C(C)C)C(=O)N[C@@H](C)C(=O)N[C@@H](C)C(=O)N[C@@H](C)C(=O)N[C@@H](CCC(N)=O)C(=O)N[C@@H](CCCNC(=N)N)C(=O)N[C@@H](Cc1ccccc1)C(=O)N[C@@H](CC(C)C)C(=O)N[C@@H](CCC(=O)O)C(=O)N[C@@H](Cc1c[nH]cn1)C(=O)N[C@@H](CC(C)C)C(=O)N[C@H](C(N)=O)C(C)C [compound 86] (H-H[Aib]EGTFTSDVSYLK([AEEA-AEEA-γGlu-C20 diacid])ELAAAQRFLEHLV-NH2)
4 |  |  | 7811 |  | 0.08 | 0.0398 nM | 39811 | 1580 nM | CC(C)C[C@H](NC(=O)[C@H](Cc1ccccc1)NC(=O)[C@H](CCCNC(=N)N)NC(=O)[C@H](CCC(N)=O)NC(=O)[C@H](CO)NC(=O)[C@H](C)NC(=O)[C@H](C)NC(=O)[C@H](CCC(=O)O)NC(=O)[C@H](CCC(=O)O)NC(=O)[C@H](CCCCNC(=O)COCCOCCNC(=O)COCCOCCNC(=O)CC[C@H](NC(=O)CCCCCCCCCCCCCCCCCCC(=O)O)C(=O)O)NC(=O)[C@H](CC(C)C)NC(=O)[C@H](CCC(=O)O)NC(=O)[C@H](CO)NC(=O)[C@@H](NC(=O)[C@H](CC(=O)O)NC(=O)[C@H](CO)NC(=O)[C@@H](NC(=O)[C@H](Cc1ccccc1)NC(=O)[C@@H](NC(=O)CNC(=O)[C@H](CCC(=O)O)NC(=O)C(C)(C)NC(=O)[C@@H](N)Cc1c[nH]cn1)[C@@H](C)O)[C@@H](C)O)C(C)C)C(=O)N[C@@H](CCC(=O)O)C(=O)N[C@@H](Cc1c[nH]cn1)C(=O)N[C@@H](CC(C)C)C(=O)N[C@H](C(N)=O)C(C)C [compound 87] (H-H[Aib]EGTFTSDVSELK([AEEA-AEEA-γGlu-C20 diacid])EEAASQRFLEHLV-NH2)

Continued, molecule first:

Row | SMILES | Selectivity [1] | EC50 [1, 5] | Fibril formation [2] | EC50 [3, 6] | Turbidity (pH 7) [4] | EC50 [1, 7] | SCTR EC50/GLP1R EC50 ratio [1] | EC50 [3, 8]
5 | CC(C)C[C@H](NC(=O)[C@H](Cc1ccccc1)NC(=O)[C@H](CCCNC(=N)N)NC(=O)[C@H](CCC(N)=O)NC(=O)[C@H](C)NC(=O)[C@H](C)NC(=O)[C@H](C)NC(=O)C(C)(C)NC(=O)[C@H](CCC(=O)O)NC(=O)[C@H](CCCCNC(=O)COCCOCCNC(=O)COCCOCCNC(=O)CC[C@H](NC(=O)CCCCCCCCCCCCCCCCCCC(=O)O)C(=O)O)NC(=O)[C@H](CC(C)C)NC(=O)[C@H](CCCNC(=N)N)NC(=O)[C@H](CO)NC(=O)[C@@H](NC(=O)[C@H](CC(=O)O)NC(=O)[C@H](CO)NC(=O)[C@@H](NC(=O)[C@H](Cc1ccccc1)NC(=O)[C@@H](NC(=O)CNC(=O)[C@H](CCC(=O)O)NC(=O)C(C)(C)NC(=O)[C@@H](N)Cc1c[nH]cn1)[C@@H](C)O)[C@@H](C)O)C(C)C)C(=O)N[C@@H](CCC(=O)O)C(=O)N[C@@H](Cc1c[nH]cn1)C(=O)N[C@@H](CC(C)C)C(=O)N[C@H](C(N)=O)C(C)C [compound 81] (H-H[Aib]EGTFTSDVSRLK([AEEA-AEEA-γGlu-C20 diacid])E[Aib]AAAQRFLEHLV-NH2) | 1217 | 0.0794 nM | 10620 | 79.4 nM | 0.08 |  |  | 
6 | CC(C)C[C@H](NC(=O)[C@H](Cc1ccccc1)NC(=O)[C@H](CCCNC(=N)N)NC(=O)[C@H](CCC(N)=O)NC(=O)[C@@H](NC(=O)[C@H](C)NC(=O)[C@H](C)NC(=O)C(C)(C)NC(=O)[C@H](CCC(=O)O)NC(=O)[C@H](CCCCNC(=O)COCCOCCNC(=O)COCCOCCNC(=O)CC[C@H](NC(=O)CCCCCCCCCCCCCCCCCCC(=O)O)C(=O)O)NC(=O)[C@H](CC(C)C)NC(=O)[C@H](CCC(=O)O)NC(=O)[C@H](CO)NC(=O)[C@@H](NC(=O)[C@H](CC(=O)O)NC(=O)[C@H](CO)NC(=O)[C@@H](NC(=O)[C@H](Cc1ccccc1)NC(=O)[C@@H](NC(=O)CNC(=O)[C@H](CCC(=O)O)NC(=O)C(C)(C)NC(=O)[C@@H](N)Cc1c[nH]cn1)[C@@H](C)O)[C@@H](C)O)C(C)C)[C@@H](C)O)C(=O)N[C@@H](CCC(=O)O)C(=O)N[C@@H](Cc1c[nH]cn1)C(=O)N[C@@H](CC(C)C)C(=O)N[C@H](C(N)=O)C(C)C [compound 82] (H-H[Aib]EGTFTSDVSELK([AEEA-AEEA-γGlu-C20 diacid])E[Aib]AATQRFLEHLV-NH2) | 11264 | 0.01 nM | 8549 | 100 nM | 0.08 |  |  | 
7 | CC(C)C[C@H](NC(=O)[C@H](Cc1ccccc1)NC(=O)[C@H](CCCNC(=N)N)NC(=O)[C@H](CCC(N)=O)NC(=O)[C@H](CCC(N)=O)NC(=O)[C@H](C)NC(=O)[C@H](C)NC(=O)[C@H](CCC(=O)O)NC(=O)[C@H](CCC(=O)O)NC(=O)[C@H](CCCCNC(=O)COCCOCCNC(=O)COCCOCCNC(=O)CC[C@H](NC(=O)CCCCCCCCCCCCCCCCCCC(=O)O)C(=O)O)NC(=O)[C@H](CC(C)C)NC(=O)[C@H](Cc1ccccc1)NC(=O)[C@H](CO)NC(=O)[C@@H](NC(=O)[C@H](CC(=O)O)NC(=O)[C@H](CO)NC(=O)[C@@H](NC(=O)[C@H](Cc1ccccc1)NC(=O)[C@@H](NC(=O)CNC(=O)[C@H](CCC(=O)O)NC(=O)C(C)(C)NC(=O)[C@@H](N)Cc1c[nH]cn1)[C@@H](C)O)[C@@H](C)O)C(C)C)C(=O)N[C@@H](CCC(=O)O)C(=O)N[C@@H](Cc1c[nH]cn1)C(=O)N[C@@H](CC(C)C)C(=O)N[C@H](C(N)=O)C(C)C [compound 83] (H-H[Aib]EGTFTSDVSFLK([AEEA-AEEA-γGlu-C20 diacid])EEAAQQRFLEHLV-NH2) | 54828 | 0.0316 nM | 9070 | 1580 nM | 0.08 |  |  | 
